Literature values, collected in US12156898B2, “Formulations of terlipressin” (BIOVIE Inc., priority 2019, dated 2024).
Bridge positions count the residues as written; N and C are the ends. Peptide text beside a SMILES is read from it.

How the values were obtained:
patients = conditions: human, in vivo
[1] = in vivo

half-life [1]: short half-life
Compound: NCCCC[C@H](NC(=O)[C@@H]1CCCN1C(=O)[C@@H]1CSSC[C@H](NC(=O)CNC(=O)CNC(=O)CN)C(=O)N[C@@H](Cc2ccc(O)cc2)C(=O)N[C@@H](Cc2ccccc2)C(=O)N[C@@H](CCC(N)=O)C(=O)N[C@@H](CC(N)=O)C(=O)N1)C(=O)NCC(N)=O [terlipressin] (H-GGGCYFQNCPKG-NH2; disulfide 4-9)
severe side effects requiring discontinuation of treatment, share of patients (patients): up to 10% | side effects, share of patients (patients): up to 40%
